The values that follow come from patent US9540343B2 (Gilead Sciences, Inc., priority 2011, dated 2017).

A value given as a limit tells only on which side of the number the result lay.

The subject of one data set is HIV-IIIb. Nature of the data set: Test A: Antiviral assay in MT4 cells. Type of data set: cell-based, HIV-1. The conditions noted are these: MT-4 cells infected with HIV-IIIb, 5 days, CellTiter-Glo; for inhibition at 2 µM: Human immunodeficiency virus 1, IIIB, MT4, 120 h, read-out: % inhibition at 2 μM, percent inhibition of virus-induced cell killing, from dose response curve at 2 uM drug. On the technique in general: In ATP-based viability assays light output follows the ATP content of the culture.

A further data set can be described thus: in vitro. As to conditions: human, uninfected MT-4 cells, CC50 (nM), same protocol as Test A, CellTiter-Glo. On the procedure:
For the antiviral assay, 40 μL of 1× test concentration of 3-fold serially diluted compound in culture medium with 10% FBS was added to each well of a 384-well plate (10 concentrations) in quadruplicate. MT-4 cells were next mixed with HIV-IIIb at an m.o.i of 0.003 for 1 hour, after which time 35 μL of virus/cell mixture (2000 cells) was immediately added to each well containing 40 μL of diluted compound. The plates were then incubated at 37° C. for 5 days. After 5 days of incubation, 25 μl of 2× concentrated CellTiter-Glo™ Reagent (catalog #G7571, Promega Biosciences, Inc., Madison, Wis.) was added to each well containing MT-4 cells. Cell lysis was carried out by incubating at room temperature for 10 min and then chemiluminescence was read.
Test B: Cytotoxicity Assay
Compound cytotoxicity and the corresponding CC50 values was determined using the same protocol as described in the antiviral assay (Test A) except that uninfected cells were used.

In general, inhibition refers to the change of the read-out against control, counted positive when it falls. As a reminder, the CC50 is the concentration giving 50% cytotoxicity. A low value points to harm at low concentration. Turning to `Cc1cc(C)c2c(c1)NC(=O)C2CC(=O)N[C@@H](Cc1cccc(F)c1)c1ncccc1-c1ccc(F)c(C(N)=O)c1` (stereo partly drawn) [Example 59E, 5-(2-((1S)-1-(2-(4,6-dimethyl-2-oxoindolin-3-yl)acetamido)-2-(3-fluorophenyl)ethyl)pyridin-3-yl)-2-fluorobenzamide], the inhibition at 2 µM in the data set on HIV-IIIb was 75%. In “in vitro”, this compound gave a CC50 at 5 days of 45100 nM.
As for `NC(=O)c1cc(-c2cccnc2[C@H](Cc2cc(F)cc(F)c2)NC(=O)Cn2cnc3c(Cl)nccc32)ccc1F` [Example 368, (S)-5-(2-(1-(2-(4-chloro-1H-imidazo[4,5-c]pyridin-1-yl)acetamido)-2-(3,5-difluorophenyl)ethyl)pyridin-3-yl)-2-fluorobenzamide], the inhibition at 2 µM in the data set with HIV-IIIb came out at 2%. In addition, in “in vitro”, half-maximal cytotoxicity (CC50 at 5 days) was put at 47300 nM.
On the same counts, the results for `Cc1ccccc1-c1cccnc1C(Cc1ccccc1)NC(=O)Cn1nc(C(F)(F)F)c2c1CCCC2` (stereo not drawn) [Example 2, N-(2-phenyl-1-(3-(o-tolyl)pyridin-2-yl)ethyl)-2-(3-(trifluoromethyl)-4,5,6,7-tetrahydro-1H-indazol-1-yl)acetamide] are 29% and 14000 nM.
`CN1CCc2c(C(F)(F)F)nn(CC(=O)N[C@@H](Cc3cc(F)cc(F)c3)c3ncccc3-c3ccc(F)c(C(N)=O)c3)c2C1` [Example 388, (S)-5-(2-(2-(3,5-difluorophenyl)-1-(2-(6-methyl-3-(trifluoromethyl)-4,5,6,7-tetrahydro-1H-pyrazolo[3,4-c]pyridin-1-yl)acetamido)ethyl)pyridin-3-yl)-2-fluorobenzamide]: the inhibition at 2 µM with HIV-IIIb was 54%. This compound also returned a CC50 at 5 days in the data set “in vitro” of more than 53200 nM.
On the same counts, the results for `NC(=O)c1cc(-c2cccnc2[C@H](Cc2cc(F)cc(F)c2)NC(=O)Cn2nc(C(F)F)c3c2C(=O)CCC3)ccc1F` [Example 370, (S)-5-(2-(1-(2-(3-(difluoromethyl)-7-oxo-4,5,6,7-tetrahydro-1H-indazol-1-yl)acetamido)-2-(3,5-difluorophenyl)ethyl)pyridin-3-yl)-2-fluorobenzamide] are 33% and 22700 nM.
The matching figures for `NC(=O)c1cc(-c2cccnc2[C@H](Cc2cc(F)cc(F)c2)NC(=O)Cn2nc(C(F)(F)F)c3c2CCC(=O)C3)ccc1F` [Example 446, (S)-5-(2-(2-(3,5-difluorophenyl)-1-(2-(5-oxo-3-(trifluoromethyl)-4,5,6,7-tetrahydro-1H-indazol-1-yl)acetamido)ethyl)pyridin-3-yl)-2-fluorobenzamide]: 79% and more than 53200 nM.
The matching figures for `O=C(Cc1c[nH]c2ccccc12)N[C@@H](Cc1cc(F)cc(F)c1)c1ncccc1-c1ccc(Cl)cc1` [Example 31, (S)—N-(1-(3-(4-chlorophenyl)pyridin-2-yl)-2-(3,5-difluorophenyl)ethyl)-2-(1H-indol-3-yl)acetamide]: 34% and 8630 nM.
Turning to `CC(C)(C)OC(=O)NCc1ccc2c(CC(=O)N[C@@H](Cc3cc(F)cc(F)c3)c3ncccc3-c3cccc(C(N)=O)c3)c[nH]c2c1` [Example 502F, (S)-tert-butyl (3-(2-(1-(3-(3-carbamoylphenyl)pyridin-2-yl)-2-(3,5-difluorophenyl)ethylamino)-2-oxoethyl)-1H-indol-6-yl)methylcarbamate], the inhibition at 2 µM in the data set on HIV-IIIb was found to be 50%. The same compound had a CC50 at 5 days in the data set “in vitro” of 3050 nM.
On the same counts, the results for `CS(=O)(=O)c1ccc2[nH]cc(CC(=O)N[C@@H](Cc3cc(F)cc(F)c3)c3ncccc3-c3ccc(F)c(C(N)=O)c3)c2c1` [Example 464, (S)-5-(2-(2-(3,5-difluorophenyl)-1-(2-(5-(methylsulfonyl)-1H-indol-3-yl)acetamido)ethyl)pyridin-3-yl)-2-fluorobenzamide] are 119% and more than 53200 nM.
On the same counts, the results for `Nc1ncc(-c2cccnc2[C@H](Cc2cc(F)cc(F)c2)NC(=O)Cn2nc(C(F)F)c3c2C(F)(F)CCC3(F)F)cc1C(F)(F)F` [Example 371, (S)—N-(1-(6′-amino-5′-(trifluoromethyl)-3,3′-bipyridin-2-yl)-2-(3,5-difluorophenyl)ethyl)-2-(3-(difluoromethyl)-4,4,7,7-tetrafluoro-4,5,6,7-tetrahydro-1H-indazo-1-yl)acetamide] are 83% and 7590 nM.
The matching figures for `Cc1cccc(-c2cccnc2[C@H](Cc2cc(F)cc(F)c2)NC(=O)Cn2nc(C(F)(F)F)c3c2CCCC3)c1` [Example 76, (S)—N-(2-(3,5-difluorophenyl)-1-(3-m-tolylpyridin-2-yl)ethyl)-2-(3-(trifluoromethyl)-4,5,6,7-tetrahydro-1H-indazol-1-yl)acetamide]: 20% and 11500 nM.
Regarding `O=C(Cn1nc(C(F)(F)F)c2c1CCCC2)N[C@@H](Cc1cc(F)cc(F)c1)c1nc[nH]c(=O)c1-c1ccc(Cl)cc1` [Example 301B, (S)—N-(1-(5-(4-chlorophenyl)-6-oxo-1,6-dihydropyrimidin-4-yl)-2-(3,5-difluorophenyl)ethyl)-2-(3-(trifluoromethyl)-4,5,6,7-tetrahydro-1H-indazol-1-yl)acetamide], in the data set with HIV-IIIb, the inhibition at 2 µM was found to be 0%. Moreover, in the data set “in vitro”, the CC50 at 5 days came out at 5650 nM.
On the same counts, the results for `Cc1cc2ccn(CC(=O)N[C@@H](Cc3cc(F)cc(F)c3)c3ncccc3-c3ccc(F)c(C(N)=O)c3)c2cc1C` [Example 498F, (S)-5-(2-(2-(3,5-difluorophenyl)-1-(2-(5,6-dimethyl-1H-indol-1-yl)acetamido)ethyl)pyridin-3-yl)-2-fluorobenzamide] are 60% and 13200 nM.
The matching figures for `CNC(=O)c1ccc(-c2cccnc2[C@H](Cc2cc(F)cc(F)c2)NC(=O)Cc2c[nH]c3ccc(F)cc23)cc1Cl` [Example 405, (S)-2-chloro-4-(2-(2-(3,5-difluorophenyl)-1-(2-(5-fluoro-1H-indol-3-yl)acetamido)ethyl)pyridin-3-yl)-N-methylbenzamide]: 11% and 21100 nM.
The matching figures for `CN1Cc2c(C(F)(F)F)nn(CC(=O)N[C@@H](Cc3cc(F)cc(F)c3)c3ncccc3-c3ccc(F)c(C(N)=O)c3)c2C1` [Example 235, (S)-5-(2-(2-(3,5-difluorophenyl)-1-(2-(5-methyl-3-(trifluoromethyl)-5,6-dihydropyrrolo[3,4-c]pyrazol-1(4H)-yl)acetamido)ethyl)pyridin-3-yl)-2-fluorobenzamide]: 12% and more than 53200 nM.
For `NC(=O)c1cc(-c2cccnc2[C@H](Cc2cc(F)cc(F)c2)NC(=O)[C@H]2CC[C@@H](c3ccccc3)N2)ccc1F` [Example 183, (2R,5S)—N—((S)-1-(3-(3-carbamoyl-4-fluorophenyl)pyridin-2-yl)-2-(3,5-difluorophenyl)ethyl)-5-phenylpyrrolidine-2-carboxamide], in the data set with HIV-IIIb, the inhibition at 2 µM worked out at 0%. The CC50 at 5 days in “in vitro” came out at 35200 nM.
What is called % inhibition is the relative decrease from the control value, in per cent. For the compound `CCC(C(=O)N[C@@H](Cc1cc(F)cc(F)c1)c1ncccc1-c1ccc(F)c(C(N)=O)c1)n1nc(C(F)(F)F)c2c1CCCC2` (stereo partly drawn) [Example 504E, 5-(2-((1S)-2-(3,5-difluorophenyl)-1-(2-(3-(trifluoromethyl)-4,5,6,7-tetrahydro-1H-indazol-1-yl)butanamido)ethyl)pyridin-3-yl)-2-fluorobenzamide], the “% inhibition at 2 μM” value in the data set on HIV-IIIb (percent inhibition of virus-induced cell killing, from dose response curve at 2 uM drug) is given as 142%. Also, the CC50 at 5 days in “in vitro” was determined as 12800 nM.
Regarding `NC(=O)c1cc(-c2cccnc2[C@H](Cc2cc(F)cc(F)c2)NC(=O)Cn2c(=O)[nH]c3ccccc32)ccc1F` [Example 318, (S)-5-(2-(2-(3,5-difluorophenyl)-1-(2-(2-oxo-2,3-dihydro-1H-benzo[d]imidazol-1-yl)acetamido)ethyl)pyridin-3-yl)-2-fluorobenzamide], the inhibition at 2 µM in the data set with HIV-IIIb was 27%. Also, the CC50 at 5 days in the data set “in vitro” is more than 53200 nM.
The matching figures for `O=C(Cn1nc(C(F)F)c2c1C(F)(F)C1CC21)N[C@@H](Cc1cc(F)cc(F)c1)c1ncncc1-c1cccc2[nH]cnc12` (stereo partly drawn) [Example 127C, N—((S)-1-(5-(1H-benzo[d]imidazol-4-yl)pyrimidin-4-yl)-2-(3,5-difluorophenyl)ethyl)-2-(3-(difluoromethyl)-5,5-difluoro-3b,4,4a,5-tetrahydro-1H-cyclopropa[3,4]cyclopenta[1,2-c]pyrazol-1-yl)acetamide]: 97% and 31900 nM.
The matching figures for `Cc1ccccc1-c1cccnc1[C@@H](Cc1ccccc1)NC(=O)Cn1nc(C(F)(F)F)c2c1CCCC2` [Example 16, (R)—N-(2-phenyl-1-(3-o-tolylpyridin-2-yl)ethyl)-2-(3-(trifluoromethyl)-4,5,6,7-tetrahydro-1H-indazol-1-yl)acetamide]: 0% and 14000 nM.
`Cc1cc2cnn(CC(=O)N[C@@H](Cc3cc(F)cc(F)c3)c3ncccc3-c3ccc(F)c(C(N)=O)c3)c2cc1C` [Example 485, (S)-5-(2-(2-(3,5-difluorophenyl)-1-(2-(5,6-dimethyl-1H-indazol-1-yl)acetamido)ethyl)pyridin-3-yl)-2-fluorobenzamide]: the inhibition at 2 µM in the data set with HIV-IIIb stood at 43%. Further, the CC50 at 5 days in the data set “in vitro” came out at 22200 nM.
